This is an account of results in the kinase profiling compilation of Christmann-Franck et al. (2016).

For orientation: residual activity means the signal under treatment as a percentage of the control signal.

Each structure is given as a SMILES string.

Chain of PRKCZ (human) (Q05513 whole entry, looked up): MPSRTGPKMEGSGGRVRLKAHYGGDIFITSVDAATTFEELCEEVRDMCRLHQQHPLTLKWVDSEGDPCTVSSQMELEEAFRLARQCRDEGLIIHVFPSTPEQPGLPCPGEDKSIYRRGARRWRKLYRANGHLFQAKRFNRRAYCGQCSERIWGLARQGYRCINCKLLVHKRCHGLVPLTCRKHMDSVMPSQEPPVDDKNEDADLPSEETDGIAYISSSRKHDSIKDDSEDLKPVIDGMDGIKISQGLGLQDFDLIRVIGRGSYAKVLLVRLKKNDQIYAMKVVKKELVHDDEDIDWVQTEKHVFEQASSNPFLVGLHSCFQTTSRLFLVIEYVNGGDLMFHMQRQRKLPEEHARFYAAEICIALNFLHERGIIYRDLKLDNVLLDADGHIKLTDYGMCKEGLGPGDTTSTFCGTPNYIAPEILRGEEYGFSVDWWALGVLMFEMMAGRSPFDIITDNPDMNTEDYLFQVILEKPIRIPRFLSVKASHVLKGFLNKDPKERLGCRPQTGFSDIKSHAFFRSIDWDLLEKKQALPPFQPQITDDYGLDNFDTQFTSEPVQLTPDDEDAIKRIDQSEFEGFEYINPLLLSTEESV
Chain of RPS6KB1 (human) (P23443 whole entry, looked up): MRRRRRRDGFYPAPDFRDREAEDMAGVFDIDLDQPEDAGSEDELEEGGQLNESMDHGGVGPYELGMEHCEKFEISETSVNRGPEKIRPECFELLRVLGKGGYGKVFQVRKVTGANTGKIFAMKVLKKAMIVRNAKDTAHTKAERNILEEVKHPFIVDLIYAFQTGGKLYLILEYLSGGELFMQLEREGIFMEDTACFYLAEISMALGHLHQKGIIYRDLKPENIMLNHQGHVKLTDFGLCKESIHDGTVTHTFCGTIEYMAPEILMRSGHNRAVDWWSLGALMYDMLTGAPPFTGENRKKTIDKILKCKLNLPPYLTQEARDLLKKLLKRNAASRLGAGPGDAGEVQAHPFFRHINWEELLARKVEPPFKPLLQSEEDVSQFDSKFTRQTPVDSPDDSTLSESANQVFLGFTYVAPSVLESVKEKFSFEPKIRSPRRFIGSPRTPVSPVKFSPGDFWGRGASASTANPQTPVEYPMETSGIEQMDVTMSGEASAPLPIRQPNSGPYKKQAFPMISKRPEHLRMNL
Chain of MAPK3 (human) (P27361 whole entry, looked up): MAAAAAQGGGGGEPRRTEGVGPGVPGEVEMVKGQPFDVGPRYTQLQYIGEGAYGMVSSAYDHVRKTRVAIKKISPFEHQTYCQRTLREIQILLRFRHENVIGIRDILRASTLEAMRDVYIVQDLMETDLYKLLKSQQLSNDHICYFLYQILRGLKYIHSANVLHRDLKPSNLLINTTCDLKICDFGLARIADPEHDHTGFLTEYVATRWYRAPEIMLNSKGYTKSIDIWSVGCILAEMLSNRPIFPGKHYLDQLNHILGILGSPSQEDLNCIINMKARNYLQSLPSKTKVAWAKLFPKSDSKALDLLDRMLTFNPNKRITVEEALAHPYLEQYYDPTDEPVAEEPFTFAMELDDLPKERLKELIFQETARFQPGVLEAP

The target in one assay is NEK4 (human) (UniProt P51957). As to the kind of experiment: radiometric filter-binding kinase assay, Kinase HotSpot. Conditions: compound 0.5 µM; ATP 10 µM.
Chain of NEK4 (human) (P51957 whole entry, looked up): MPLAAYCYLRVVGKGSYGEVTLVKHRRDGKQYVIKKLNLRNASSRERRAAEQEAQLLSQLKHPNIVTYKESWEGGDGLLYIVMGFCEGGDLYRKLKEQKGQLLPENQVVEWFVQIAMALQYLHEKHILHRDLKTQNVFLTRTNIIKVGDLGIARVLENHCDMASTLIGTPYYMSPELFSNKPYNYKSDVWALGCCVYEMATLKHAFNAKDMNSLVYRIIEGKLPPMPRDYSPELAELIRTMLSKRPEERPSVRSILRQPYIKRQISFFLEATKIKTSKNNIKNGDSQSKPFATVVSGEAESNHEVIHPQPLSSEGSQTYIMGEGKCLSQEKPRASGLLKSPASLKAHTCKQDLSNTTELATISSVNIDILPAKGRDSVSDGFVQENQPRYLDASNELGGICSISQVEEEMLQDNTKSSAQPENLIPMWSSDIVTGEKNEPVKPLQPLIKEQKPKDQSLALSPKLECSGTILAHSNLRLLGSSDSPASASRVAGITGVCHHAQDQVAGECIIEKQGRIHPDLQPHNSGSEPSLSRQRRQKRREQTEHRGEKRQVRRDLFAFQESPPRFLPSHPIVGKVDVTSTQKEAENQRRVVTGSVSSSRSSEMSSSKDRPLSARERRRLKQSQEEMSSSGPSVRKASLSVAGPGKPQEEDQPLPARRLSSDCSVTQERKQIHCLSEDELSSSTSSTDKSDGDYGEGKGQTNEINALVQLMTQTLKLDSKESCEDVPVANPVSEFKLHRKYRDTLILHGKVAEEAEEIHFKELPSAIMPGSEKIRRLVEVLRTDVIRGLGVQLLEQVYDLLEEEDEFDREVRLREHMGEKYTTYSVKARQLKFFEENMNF
Take `COc1ccc(CNC(=O)Nc2ncc([N+](=O)[O-])s2)cc1`: the residual activity stood at 91%.
On to `Cn1sc(=O)n(Cc2ccccc2)c1=O`, for which the residual activity was found to be 98%.
Same read-out and setting: the figure for `CCn1cnc2c(Nc3cccc(Cl)c3)nc(N[C@@H]3CCCC[C@@H]3N)nc21` is 96.8%.

Another assay addresses PRKCZ (human) (UniProt Q05513). Described as above. Conditions: compound 0.5 µM; ATP 10 µM.
Take `COc1ccc(CNC(=O)Nc2ncc([N+](=O)[O-])s2)cc1`: the residual activity worked out at 96.3%.
On to `Cn1sc(=O)n(Cc2ccccc2)c1=O`, for which the residual activity was 101%.
Still for that read-out and setting: with `CCn1cnc2c(Nc3cccc(Cl)c3)nc(N[C@@H]3CCCC[C@@H]3N)nc21` the figure was 106%.

In another assay the target is CSK (human) (UniProt P41240). The description is as above. To be noted: compound 0.5 µM; ATP 10 µM.
Chain of CSK (human) (P41240 whole entry, looked up): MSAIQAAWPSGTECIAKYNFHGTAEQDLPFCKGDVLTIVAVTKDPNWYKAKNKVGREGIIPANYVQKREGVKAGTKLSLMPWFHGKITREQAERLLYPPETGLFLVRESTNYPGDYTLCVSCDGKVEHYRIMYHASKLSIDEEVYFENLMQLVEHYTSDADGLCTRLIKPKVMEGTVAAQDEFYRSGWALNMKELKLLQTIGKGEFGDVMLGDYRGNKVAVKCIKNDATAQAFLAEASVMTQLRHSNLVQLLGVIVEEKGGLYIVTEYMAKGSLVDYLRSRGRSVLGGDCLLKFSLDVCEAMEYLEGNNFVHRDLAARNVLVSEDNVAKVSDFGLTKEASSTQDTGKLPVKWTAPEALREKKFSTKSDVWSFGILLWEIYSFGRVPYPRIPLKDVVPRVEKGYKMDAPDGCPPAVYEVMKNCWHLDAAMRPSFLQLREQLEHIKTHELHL
As to `COc1ccc(CNC(=O)Nc2ncc([N+](=O)[O-])s2)cc1`, the residual activity was 102%.
For `Cn1sc(=O)n(Cc2ccccc2)c1=O`, the residual activity turned out to be 101%.
Turning to `CCn1cnc2c(Nc3cccc(Cl)c3)nc(N[C@@H]3CCCC[C@@H]3N)nc21`, the residual activity turned out to be 85.4%.

In the next assay the target is BRSK1 (human) (UniProt Q8TDC3). The assay is described as above. To be noted: compound 0.5 µM; ATP 10 µM.
Chain of BRSK1 (human) (Q8TDC3 whole entry, looked up): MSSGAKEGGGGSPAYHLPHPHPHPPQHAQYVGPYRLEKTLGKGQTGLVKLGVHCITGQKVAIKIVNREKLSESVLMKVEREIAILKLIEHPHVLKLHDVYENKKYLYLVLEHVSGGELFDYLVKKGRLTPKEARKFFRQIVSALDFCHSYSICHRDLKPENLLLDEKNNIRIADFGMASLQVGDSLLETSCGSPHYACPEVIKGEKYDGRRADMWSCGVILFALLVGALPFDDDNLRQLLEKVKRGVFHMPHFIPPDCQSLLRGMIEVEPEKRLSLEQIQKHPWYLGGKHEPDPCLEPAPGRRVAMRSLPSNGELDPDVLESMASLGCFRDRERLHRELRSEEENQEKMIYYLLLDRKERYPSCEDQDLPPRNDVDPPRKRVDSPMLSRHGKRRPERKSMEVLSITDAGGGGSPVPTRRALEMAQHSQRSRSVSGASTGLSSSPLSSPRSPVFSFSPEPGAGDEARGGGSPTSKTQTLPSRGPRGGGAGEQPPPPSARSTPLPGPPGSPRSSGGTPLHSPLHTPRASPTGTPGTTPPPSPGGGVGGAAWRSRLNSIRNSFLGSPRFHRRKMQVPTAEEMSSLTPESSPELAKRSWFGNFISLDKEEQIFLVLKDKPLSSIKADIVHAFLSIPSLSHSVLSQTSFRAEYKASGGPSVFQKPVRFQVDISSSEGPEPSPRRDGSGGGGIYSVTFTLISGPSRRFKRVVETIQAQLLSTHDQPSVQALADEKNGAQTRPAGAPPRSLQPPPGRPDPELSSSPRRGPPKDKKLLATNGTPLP
In the case of `COc1ccc(CNC(=O)Nc2ncc([N+](=O)[O-])s2)cc1`, the residual activity was 102%.
In the case of `Cn1sc(=O)n(Cc2ccccc2)c1=O`, the residual activity came to 102%.
`CCn1cnc2c(Nc3cccc(Cl)c3)nc(N[C@@H]3CCCC[C@@H]3N)nc21`: the residual activity is 92.4%.

For a further assay, the target named is MAP2K2 (human) (UniProt P36507). The description is as above. To be noted: compound 0.5 µM; ATP 10 µM.
Chain of MAP2K2 (human) (P36507 whole entry, looked up): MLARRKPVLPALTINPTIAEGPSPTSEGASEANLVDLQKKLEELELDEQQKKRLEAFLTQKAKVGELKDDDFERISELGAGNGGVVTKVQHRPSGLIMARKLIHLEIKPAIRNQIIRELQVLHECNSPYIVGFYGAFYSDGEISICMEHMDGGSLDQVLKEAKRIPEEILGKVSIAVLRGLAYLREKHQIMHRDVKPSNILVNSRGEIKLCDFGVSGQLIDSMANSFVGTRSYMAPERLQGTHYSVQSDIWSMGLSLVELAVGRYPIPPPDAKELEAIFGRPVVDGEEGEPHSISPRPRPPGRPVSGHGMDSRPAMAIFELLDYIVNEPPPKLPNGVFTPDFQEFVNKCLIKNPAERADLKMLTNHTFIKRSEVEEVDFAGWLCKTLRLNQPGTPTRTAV
In the case of `COc1ccc(CNC(=O)Nc2ncc([N+](=O)[O-])s2)cc1`, the residual activity was determined as 73.5%.
In the case of `Cn1sc(=O)n(Cc2ccccc2)c1=O`, the residual activity is 101%.
In the case of `CCn1cnc2c(Nc3cccc(Cl)c3)nc(N[C@@H]3CCCC[C@@H]3N)nc21`, the residual activity was determined as 107%.

For another assay, the target named is CSNK1E (human) (UniProt P49674). The assay is described as above. Conditions: compound 0.5 µM; ATP 10 µM.
With `COc1ccc(CNC(=O)Nc2ncc([N+](=O)[O-])s2)cc1`, the residual activity turned out to be 102%.
On the same count and under the same terms, with `Cn1sc(=O)n(Cc2ccccc2)c1=O` the figure was 100%.
Same read-out and setting: with `CCn1cnc2c(Nc3cccc(Cl)c3)nc(N[C@@H]3CCCC[C@@H]3N)nc21` the figure was 92.1%.

A further assay deals with MAP2K1 (human) (UniProt Q02750). The assay is described as above. Conditions: compound 0.5 µM; ATP 10 µM.
On to `COc1ccc(CNC(=O)Nc2ncc([N+](=O)[O-])s2)cc1`, for which the residual activity came to 101%.
For `Cn1sc(=O)n(Cc2ccccc2)c1=O`, the residual activity is 83.8%.
The same measure, in the same setting: the figure for `CCn1cnc2c(Nc3cccc(Cl)c3)nc(N[C@@H]3CCCC[C@@H]3N)nc21` is 92.2%.

In the next assay the target is PRKX (human) (UniProt P51817). The description is as above. Conditions: compound 0.5 µM; ATP 10 µM.
`COc1ccc(CNC(=O)Nc2ncc([N+](=O)[O-])s2)cc1`: the residual activity worked out at 72.1%.
`Cn1sc(=O)n(Cc2ccccc2)c1=O`: the residual activity worked out at 102%.
As for `CCn1cnc2c(Nc3cccc(Cl)c3)nc(N[C@@H]3CCCC[C@@H]3N)nc21`, the residual activity is 102%.

The target in another assay is AXL (human) (UniProt P30530). The assay is described as above. Conditions: compound 0.5 µM; ATP 10 µM.
`COc1ccc(CNC(=O)Nc2ncc([N+](=O)[O-])s2)cc1`: the residual activity was found to be 92%.
Consider `Cn1sc(=O)n(Cc2ccccc2)c1=O`, for which the residual activity stood at 96.9%.
Turning to `CCn1cnc2c(Nc3cccc(Cl)c3)nc(N[C@@H]3CCCC[C@@H]3N)nc21`, the residual activity came to 98.7%.

A further assay has as its target MAPK3 (human) (UniProt P27361). The assay is described as above. Conditions: compound 0.5 µM; ATP 10 µM.
Consider `COc1ccc(CNC(=O)Nc2ncc([N+](=O)[O-])s2)cc1`, for which the residual activity turned out to be 103%.
Turning to `Cn1sc(=O)n(Cc2ccccc2)c1=O`, the residual activity came out at 90.4%.
Turning to `CCn1cnc2c(Nc3cccc(Cl)c3)nc(N[C@@H]3CCCC[C@@H]3N)nc21`, the residual activity came to 108%.

The target in a further assay is CHEK2 (human) (UniProt O96017). Described as above. To be noted: compound 0.5 µM; ATP 10 µM.
As for `COc1ccc(CNC(=O)Nc2ncc([N+](=O)[O-])s2)cc1`, the residual activity is 99.2%.
Still for that read-out and setting: the figure for `Cn1sc(=O)n(Cc2ccccc2)c1=O` is 108%.
Take `CCn1cnc2c(Nc3cccc(Cl)c3)nc(N[C@@H]3CCCC[C@@H]3N)nc21`: the residual activity turned out to be 79.9%.

A further assay has as its target TXK (human) (UniProt P42681). Described as above. Conditions: compound 0.5 µM; ATP 10 µM.
Turning to `COc1ccc(CNC(=O)Nc2ncc([N+](=O)[O-])s2)cc1`, the residual activity came out at 96.9%.
`Cn1sc(=O)n(Cc2ccccc2)c1=O`: the residual activity was 99.8%.
For the molecule `CCn1cnc2c(Nc3cccc(Cl)c3)nc(N[C@@H]3CCCC[C@@H]3N)nc21`, the residual activity stood at 69.1%.

The target of the next assay is NUAK2 (human) (UniProt Q9H093). The assay is described as above. To be noted: compound 0.5 µM; ATP 10 µM.
Regarding `COc1ccc(CNC(=O)Nc2ncc([N+](=O)[O-])s2)cc1`, the residual activity worked out at 89.9%.
In the case of `Cn1sc(=O)n(Cc2ccccc2)c1=O`, the residual activity worked out at 97.7%.
Same read-out and setting: with `CCn1cnc2c(Nc3cccc(Cl)c3)nc(N[C@@H]3CCCC[C@@H]3N)nc21` the figure was 93.7%.

Another assay concerns the target CSF1R (human) (UniProt P07333). The assay is described as above. To be noted: compound 0.5 µM; ATP 10 µM.
As to `COc1ccc(CNC(=O)Nc2ncc([N+](=O)[O-])s2)cc1`, the residual activity is 99.2%.
In the case of `Cn1sc(=O)n(Cc2ccccc2)c1=O`, the residual activity stood at 98.6%.
For the molecule `CCn1cnc2c(Nc3cccc(Cl)c3)nc(N[C@@H]3CCCC[C@@H]3N)nc21`, the residual activity came to 94.2%.

Another assay has as its target NEK2 (human) (UniProt P51955). The assay is described as above. To be noted: compound 0.5 µM; ATP 10 µM.
Turning to `COc1ccc(CNC(=O)Nc2ncc([N+](=O)[O-])s2)cc1`, the residual activity stood at 99.1%.
The same measure, in the same setting: with `Cn1sc(=O)n(Cc2ccccc2)c1=O` the figure was 99.7%; with `CCn1cnc2c(Nc3cccc(Cl)c3)nc(N[C@@H]3CCCC[C@@H]3N)nc21`, 100%.

Another assay concerns the target MET (human) (UniProt P08581). The assay is described as above. Conditions: compound 0.5 µM; ATP 10 µM.
For `COc1ccc(CNC(=O)Nc2ncc([N+](=O)[O-])s2)cc1`, the residual activity was determined as 85.5%.
Consider `Cn1sc(=O)n(Cc2ccccc2)c1=O`, for which the residual activity was determined as 64.2%.
Take `CCn1cnc2c(Nc3cccc(Cl)c3)nc(N[C@@H]3CCCC[C@@H]3N)nc21`: the residual activity is 102%.

The next assay deals with GRK5 (human) (UniProt P34947). The assay is described as above. Conditions: compound 0.5 µM; ATP 10 µM.
Chain of GRK5 (human) (P34947 whole entry, looked up): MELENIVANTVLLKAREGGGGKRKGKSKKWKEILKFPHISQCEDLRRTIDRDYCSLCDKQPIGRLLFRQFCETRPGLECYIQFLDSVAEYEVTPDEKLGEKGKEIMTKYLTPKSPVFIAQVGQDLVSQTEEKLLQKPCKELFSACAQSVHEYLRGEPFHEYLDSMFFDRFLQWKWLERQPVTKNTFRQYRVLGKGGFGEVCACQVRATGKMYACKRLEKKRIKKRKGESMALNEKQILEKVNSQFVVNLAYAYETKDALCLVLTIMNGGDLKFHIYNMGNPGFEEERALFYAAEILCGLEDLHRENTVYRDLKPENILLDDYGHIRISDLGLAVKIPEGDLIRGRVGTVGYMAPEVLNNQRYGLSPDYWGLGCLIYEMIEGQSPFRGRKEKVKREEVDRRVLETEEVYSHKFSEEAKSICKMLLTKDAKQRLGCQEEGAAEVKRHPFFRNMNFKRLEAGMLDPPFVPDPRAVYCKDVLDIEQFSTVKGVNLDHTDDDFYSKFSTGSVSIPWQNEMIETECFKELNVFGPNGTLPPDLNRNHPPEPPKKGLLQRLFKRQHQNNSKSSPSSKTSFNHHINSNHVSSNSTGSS
Regarding `COc1ccc(CNC(=O)Nc2ncc([N+](=O)[O-])s2)cc1`, the residual activity was 104%.
As for `Cn1sc(=O)n(Cc2ccccc2)c1=O`, the residual activity worked out at 93.6%.
Turning to `CCn1cnc2c(Nc3cccc(Cl)c3)nc(N[C@@H]3CCCC[C@@H]3N)nc21`, the residual activity turned out to be 106%.

A further assay has as its target ADRBK2 (human) (UniProt P35626). Described as above. To be noted: compound 0.5 µM; ATP 10 µM.
For `COc1ccc(CNC(=O)Nc2ncc([N+](=O)[O-])s2)cc1`, the residual activity is 112%.
`Cn1sc(=O)n(Cc2ccccc2)c1=O`: the residual activity amounted to 99.6%.
`CCn1cnc2c(Nc3cccc(Cl)c3)nc(N[C@@H]3CCCC[C@@H]3N)nc21`: the residual activity was 89.2%.

The next assay has as its target RPS6KB1 (human) (UniProt P23443). The assay is described as above. To be noted: compound 0.5 µM; ATP 10 µM.
Regarding `COc1ccc(CNC(=O)Nc2ncc([N+](=O)[O-])s2)cc1`, the residual activity is 85.4%.
Still for that read-out and setting: with `Cn1sc(=O)n(Cc2ccccc2)c1=O` the figure was 98%; with `CCn1cnc2c(Nc3cccc(Cl)c3)nc(N[C@@H]3CCCC[C@@H]3N)nc21`, 97.3%.

In another assay the target is PIM1 (human) (UniProt P11309). Described as above. To be noted: compound 0.5 µM; ATP 10 µM.
Chain of PIM1 (human) (P11309 whole entry, looked up): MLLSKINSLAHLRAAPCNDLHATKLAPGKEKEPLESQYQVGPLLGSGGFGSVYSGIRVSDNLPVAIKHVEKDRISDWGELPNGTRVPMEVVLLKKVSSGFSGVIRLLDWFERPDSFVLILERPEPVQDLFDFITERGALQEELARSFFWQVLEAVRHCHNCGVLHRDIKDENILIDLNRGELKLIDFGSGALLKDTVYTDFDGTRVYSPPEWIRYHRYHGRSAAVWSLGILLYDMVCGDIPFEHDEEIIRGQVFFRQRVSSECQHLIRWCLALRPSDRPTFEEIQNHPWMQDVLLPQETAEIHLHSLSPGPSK
Regarding `COc1ccc(CNC(=O)Nc2ncc([N+](=O)[O-])s2)cc1`, the residual activity amounted to 104%.
As to `Cn1sc(=O)n(Cc2ccccc2)c1=O`, the residual activity was found to be 93%.
Take `CCn1cnc2c(Nc3cccc(Cl)c3)nc(N[C@@H]3CCCC[C@@H]3N)nc21`: the residual activity was 83.8%.

The next assay concerns the target NTRK3 (human) (UniProt Q16288). The description is as above. Conditions: compound 0.5 µM; ATP 10 µM.
For the molecule `COc1ccc(CNC(=O)Nc2ncc([N+](=O)[O-])s2)cc1`, the residual activity was determined as 98.7%.
Same read-out and setting: with `Cn1sc(=O)n(Cc2ccccc2)c1=O` the figure was 107%.
Regarding `CCn1cnc2c(Nc3cccc(Cl)c3)nc(N[C@@H]3CCCC[C@@H]3N)nc21`, the residual activity is 23.4%.
